Columns and labels:
[1] = system: polyA-polyU (RNA, polymer) A/U; experiment: UV melting at 260 nm; details: PBS, I = 0.05 M, cations not specified, pH 7, r = 0.3 [compound]/[polynucleotide]
P. aeruginosa ATCC 27853 = experiment: Broth microdilution MIC, P. aeruginosa ATCC 27853; format: cell-based; details: Pseudomonas aeruginosa, ATCC27853; Table S2
Method: (§1) The compounds were evaluated for their in vitro anti-bacterial activity against Gram-positive bacteria: S. aureus (ATCC 25923), MRSA, methicillin-sensitive S. aureus (MSSA), E. faecalis, vancomycin-resistant E. faecium (VREF), and Gram-negative bacteria: E. coli (ATCC 25925), P. aeruginosa (ATCC 27853), A. baumannii (ATCC 19606) and ESBL-producing K. pneumoniae (ATCC 27736). Standard broth microdilution method as recommended in guidelines of Clinical and Laboratory Standards Institute[61] ^, [65] ^, [66] was applied and the minimum inhibitory concentration (MIC) of compounds was tested. In short, testing was performed in U-bottomed 96-well sterile plastic microdilution trays (Falcon 3077, Becton Dickinson Labware, Franklin Lakes, NJ) in cation (Ca^2+ and Mg^2+) adjusted Mueller–Hinton broth medium (Becton Dickinson and Co., Cockeysville, MD). All testings were performed in triplicate.
(§2) The in vitro anti-bacterial activity of 5-amidinobenzimidazoles 7a–7e, 8a–8e, and 9a–9e was tested against Gram-positive bacteria including S. aureus (ATCC 25923), Enterococcus faecalis (ATCC 29212), and Gram-negative bacteria including E. coli (ATCC 25925), K. pneumoniae (ATCC 700803), P. aeruginosa (ATCC 27853), and Acinetobacter baumannii (ATCC 19606).

A. baumannii ATCC 19606 = experiment: Broth microdilution MIC, A. baumannii ATCC 19606; format: cell-based; details: Acinetobacter baumannii, ATCC19606; Table S2
Method: as §1, §2

E. faecalis ATCC 29212 = experiment: Broth microdilution MIC, E. faecalis ATCC 29212; format: cell-based; details: Enterococcus faecalis, ATCC29212; Table S2
Method: as §1, §2

S. aureus ATCC 25923 = experiment: Broth microdilution MIC, S. aureus ATCC 25923; format: cell-based; details: Staphylococcus aureus, ATCC25923; Table S2
Method: as §1, §2

ctDNA = experiment: Thermal melting (ΔTm) of ctDNA; format: binding, calf; details: PBS, pH 7; for ΔTm, ctDNA, r = 0.3: r = [compound]/[polynucleotide] 0.3, error ±0.5 °C
Method: (§3) T m experiments were conducted with a Perkin Elmer Lambda 25 spectrophotometer in 1 cm quartz cuvettes. The absorbance of the DNA/RNA-compound complex was monitored at 260 nm as a function of temperature. The absorbance of the ligands was subtracted from every curve, and the absorbance scale was normalised. The ΔT m values were calculated by subtracting T m of the free nucleic acid from T m of the complex. Every reported ΔT m value was the average of at least two measurements. The error of ΔT m is ±0.5 °C. All data were graphed and analysed using Origin software version 9.0.
(§4) Denaturation experiments were carried out at different amounts of the compounds (r = 0.1, 0.3, 0.5, and 0.7 eq; r = [compound]/[polynucleotide]) with ctDNA and polyA-polyU.

[2] = system: bloodstream form T. brucei (strain 221); experiment: Anti-trypanosomal screening, resazurin; format: cell-based; details: Trypanosoma brucei, mean of triplicate ± SEM
Method: Bloodstream form T. brucei (strain 221) were cultured in modified Iscove’s medium, as outlined[67] and trypanocidal assays were performed using 96-well microtitre plates. […] Resazurin was added after 48 h, the plates incubated for a further 16 h, and then read in a Spectramax plate reader (Molecular Devices Corporation, San Jose, CA). The data were analysed using GraphPad Prism (GraphPad, La Jolla, CA). Each drug concentration was tested in triplicate.

K. pneumonia ATCC 700803 = experiment: Broth microdilution MIC, K. pneumoniae ATCC 700803; format: cell-based; details: Klebsiella pneumoniae, ATCC700803; Table S2
Method: as §1, §2

S. aureus MSSA = experiment: Broth microdilution MIC, MSSA clinical strain; format: cell-based; details: Staphylococcus aureus
Method: as §1

[3] = system: polyA-polyU (RNA, polymer) A/U; experiment: UV-Vis titration, Scatchard; details: PBS, I = 0.05 M (Table 1 says I = 0.015 M), cations not specified, I = 0.015 M (Methods: 0.05 M), pH 7, per base
S. aureus MRSA = experiment: Broth microdilution MIC, MRSA clinical strain; format: cell-based; details: Staphylococcus aureus, antibiotic-resistant clinical strain
Method: as §1

[4] = system: polyG-polyC (polyC-polyG) (RNA, polymer) G/C; experiment: UV-Vis titration, Scatchard; details: PBS; for log Ks: I = 0.05 M (Table 1 says I = 0.015 M), cations not specified, I = 0.015 M (Methods: 0.05 M), pH 7, per base
polyA-polyU [5] = experiment: UV–Vis titration with polyA-polyU (Scatchard); format: binding; details: PBS, pH 7; for Hypochromic effect H/%, polyA-polyU: UV–Vis titration, calculated by Scatchard equation; for log Ks, polyA-polyU: binding constant, Scatchard
Method: (§5) Polynucleotides were purchased as follows: polyG–polyC, polyA–polyU (Sigma-Aldrich, St. Louis, MO), calf thymus ctDNA (Aldrich). Polynucleotides were dissolved in PBS buffer, I = 0.05 mol dm^−3, pH 7.0. The calf thymus ctDNA was additionally sonicated and filtered through a […] filter. The polynucleotide concentration was spectroscopically determined as the concentration of nucleobases.
(§6) All UV–Vis absorbance measurements were conducted on a Perkin Elmer Lambda 25 spectrophotometer (Perkin Elmer, Waltham, MA). A quartz cell with a 1 cm path length was used for all absorbance studies. Compound stock solutions were 1 mM. The DNA/RNA at increasing ratios was then titrated into the compound buffer solution (1.48 × 10^−5 mol dm^−3) and the corresponding absorption spectra were recorded under the same conditions. All data were graphed and analysed using Origin software version 9.0 (OriginLab Corporation, Northampton, MA). The stability constants (Ks) and [bound compound]/[polynucleotide phosphate] ratios (n) were calculated according to the Scatchard Equation[63] ^, [64]. Values for Ks and n given in Table 1 all have satisfying correlation coefficients (0.99).
(§7) The binding constants logKs and the density of the binding sites n were calculated using Scatchard plot analysis. In addition, the binding constants Ks for compounds 8b and 8e were calculated only for titration data taken at the r ≥ 0.1, because below that ratio changes in absorption maxima were too small for accurate calculation (ΔA ≤ 0.04) (Table 1). The binding constants Ks and ratios n obtained by processing UV–Vis titration data using the Scatchard equation are summarised in Table 1.

E. coli ATCC 25925 = experiment: Broth microdilution MIC, E. coli ATCC 25925; format: cell-based; details: Escherichia coli, ATCC25925; Table S2
Method: as §1, §2

calf thymus ctDNA = experiment: UV–Vis titration with ctDNA (Scatchard); format: binding; details: PBS, pH 7; for Hypochromic effect H/%, ctDNA: UV–Vis titration, calculated by Scatchard equation; for log Ks, ctDNA: binding constant, Scatchard
Method: as §5, §6, §7

polyA-polyU [6] = experiment: Thermal melting (ΔTm) of polyA-polyU; format: binding; details: for ΔTm, polyA-polyU, r = 0.1: PBS, pH 7
Method: as §3, §4

E. faecium VRE = experiment: Broth microdilution MIC, VRE clinical strain; format: cell-based; details: Enterococcus faecium
Method: as §1

polyC-polyG = experiment: UV–Vis titration with polyC-polyG (Scatchard); format: binding; details: PBS, pH 7; for Hypochromic effect H/%, polyC-polyG: UV–Vis titration, calculated by Scatchard equation; for log Ks, polyC-polyG: binding constant, Scatchard
Method: as §5, §6, §7

[7] = r = 0.3, first melting midpoint

Compound | MIC (P. aeruginosa ATCC 27853) [µg/mL] | MIC (A. baumannii ATCC 19606) [µg/mL] | MIC (E. faecalis ATCC 29212) [µg/mL] | MIC (S. aureus ATCC 25923) [µg/mL] | ΔTm, ctDNA, r = 0.5 (ctDNA) [°C] | ΔTm, ctDNA, r = 0.7 (ctDNA) [°C] | ΔTm, ctDNA, r = 0.3 (ctDNA) [°C] | IC50 [2] [µM] | MIC (K. pneumonia ATCC 700803) [µg/mL] | MIC (S. aureus MSSA) [µg/mL] | log Ks [3] | MIC (S. aureus MRSA) [µg/mL] | Hypochromic effect H/%, polyA-polyU (polyA-polyU [5]) [%] | log Ks, polyA-polyU (polyA-polyU [5]) | melting point [°C] | MIC (E. coli ATCC 25925) [µg/mL] | Hypochromic effect H/%, ctDNA (calf thymus ctDNA) [%] | log Ks, ctDNA (calf thymus ctDNA) | ΔTm, polyA-polyU, r = 0.1 (polyA-polyU [6]) [°C] | ΔTm, polyA-polyU, r = 0.3 (polyA-polyU [6]; [7]) [°C] | also measured
Cl.Cl.N=C(N)c1ccc2[nH]c(-c3ccc(OCc4cn(-c5ccccc5Cl)nn4)cc3)nc2c1 [Compound 7c, 2–(4-((1–(2-Chlorophenyl)-1H-1,2,3-triazol-4-yl)methoxy)phenyl)-1H-benz[d]imidazole-5-carboximidamide dihydrochloride] | > 256 | > 256 | 64 | 64 | 3.20 | 3.77 | 2.35 | > 15 | > 256 | 32 | 5.21 | 16 | 38.9 | 5.21 | 176 to 177 | 256 | 36.3 | 6.24 | 0.20 | 2.72 | ΔTm ([1]; error ±0.5, per base): 2.72 °C; binding ([4]; pH 7, changes too small for accurate calculation, compound 14.8 µM): weak; MIC (E. faecium VRE): 256 µg/mL
CC(C)NC(=N)c1ccc2[nH]c(-c3ccc(OCc4cn(-c5ccccc5Cl)nn4)cc3)nc2c1.Cl.Cl [Compound 8c, N-isopropyl-2–(4-((1–(2-chlorophenyl)-1H-1,2,3-triazol-4-yl)methoxy)phenyl)-1H-benz[d]imidazole-5-carboximidamide dihydrochloride] | > 256 | > 256 | 64 | 32 | 3.89 | 4.39 | 3.40 | > 15 | > 256 | 16 | 6.00 | 8 | 50.4 | 6.00 | 210 to 213 | 256 | 33.8 | 5.64 | 0.76 | 0.58 | Hypochromic effect H/%, polyC-polyG (polyC-polyG): 5.31%; log Ks, polyC-polyG (polyC-polyG): 6.43; log Ks [4]: 6.43; ΔTm, polyA-polyU, r = 0.5 (polyA-polyU [6]; r = 0.5, first melting midpoint): 1.12 °C; MIC (E. faecium VRE): 32 µg/mL
Cl.Cl.Clc1ccccc1-n1cc(COc2ccc(-c3nc4cc(C5=NCCN5)ccc4[nH]3)cc2)nn1 [Compound 9c, 5–(4,5-Dihydro-1H-imidazol-2-yl)-2–(4-((1–(2-chlorophenyl)-1H-1,2,3-triazol-4-yl)methoxy)phenyl)-1H-benz[d]imidazole dihydrochloride] | > 256 | > 256 | 32 | 128 | 3.31 | 3.80 | 3.55 | > 15 | > 256 | 128 | 5.38 | 8 | 29.3 | 5.38 | 194 to 196 | 256 | 11.7 | 6.43 | 2.85 | 4.27 | ΔTm ([1]; error ±0.5, biphasic, second midpoint 13.99, per base): 4.27 °C; Hypochromic effect H/%, polyC-polyG (polyC-polyG): 5.34%; log Ks, polyC-polyG (polyC-polyG): 6.43; log Ks [4]: 6.43; ΔTm, polyA-polyU, r = 0.3, second melting midpoint (polyA-polyU [6]; r = 0.3, footnote c: biphasic melting curve): 13.99 °C; MIC (E. faecium VRE): 64 µg/mL

— publication PMC6127852 (Journal of Enzyme Inhibition and Medicinal Chemistry, 2018)
